Patent publication US7271173B2, “Mixed kappa/mu opioids and uses thereof” (The McLean Hospital Corporation, priority 2002, dated 2007)
Like-named read-outs stand apart in the source and are kept apart here.

How the values were obtained:
human mu opioid receptor = target: T1, human mu opioid receptor (Homo sapiens, UniProt P35372); test: Radioligand binding, [3H]DAMGO (μ), CHO membranes
T1 construct: expressed in transfected cells; host or cells: CHO cells, stably transfected
Source text: (§1) Compounds can be characterized in radioligand receptor binding assays, using ligands that are specific for the mu, delta and kappa receptors. The binding assays may utilize guinea pig brain membranes or stably transfected Chinese Hamster Ovary (CHO) cells expressing each of the three opioid receptors. Membranes can be isolated from CHO cells that stably express either the human mu, delta or kappa opioid receptors. At approximately 80% confluence, the cells are harvested by the use of a cell scraper. The cells and media from the plates are centrifuged at 200×g for 10 mm at 4° C.; resuspended in 50 mM Tris-HCl, pH 7.5; homogenized by the use of a Polytron; centrifuged at 48,000×g for 20 mm at 4° C.; and resuspended in 50 mM Tris-HCl, pH 7.5, at a protein concentration of 5-10 mg/ml, as determined by the Bradford method. The membranes are stored frozen, at −80° C. until use.
(§2) Cell membranes are incubated at 25° C. with the radiolabeled ligands in a final volume of 1 ml of 50 mM Tris-HCl, pH 7.5. […] Nonspecific binding is measured by inclusion of 1 μM naloxone. The binding can be terminated by filtering the samples through Schleicher & Scheull No. 32 glass fiber filters using a Brandel 48-well cell harvester. The filters are subsequently washed three times with 3 ml of cold 50 mM Tris-HCl, pH 7.5, and can be counted in 2 ml of Ecoscint A scintillation fluid. For [^3H]U69,593 binding, the filters are soaked in 0.1% polyethylenimine for at least 30 minutes before use. IC50 values can be calculated by a least squares fit to a logarithm-probit analysis. Ki values of unlabeled compounds are calculated from the equation Ki=(IC50)/1+S where S=(concentration of radioligand) (Kd of radioligand). Cheng and Prusoff, Biochem. Pharmacol. 22:3099 (1973). Alternatively, guinea pig brain membranes can be prepared and used as previously described in Neumeyer, et al., J. Med. Chem. 43:114 (2000).
(§3) As described in Example 12, 0.5 milligrams of protein per sample was incubated with 12 different concentrations of the compounds in the presence of receptor-specific radioligands at 25° C. in a final volume of 1 mL (50 mM Tris-HCl buffer, pH 7.5). Nonspecific binding was determined using 10 μM naloxone. The data in Table 1 are the mean values SEM from three experiments performed in triplicate.
as §3, with “Four 10-ketomorphinan compounds, see Table 2, were evaluated for their affinity and selectivity at the three opioid receptors. As” for “As”, “Table 2” for “Table 1”

[1] = target: T2, human delta opioid receptor (Homo sapiens, UniProt P41143); test: Radioligand binding, [3H]naltrindole (δ), CHO membranes
T2 construct: expressed in transfected cells; host or cells: CHO cells, stably transfected
Source text: as §1, §2, §3
as §3, with “Four 10-ketomorphinan compounds, see Table 2, were evaluated for their affinity and selectivity at the three opioid receptors. As” for “As”, “Table 2” for “Table 1”

[2] = target: T3, human kappa opioid receptor (Homo sapiens, UniProt P41145); test: Radioligand binding, [3H]U69,593 (κ), CHO membranes; details: for Selectivity δ:κ / Selectivity μ:κ: ratio of Ki values
T3 construct: expressed in transfected cells; host or cells: CHO cells, stably transfected
Source text: as §1, §2, §3
as §3, with “Four 10-ketomorphinan compounds, see Table 2, were evaluated for their affinity and selectivity at the three opioid receptors. As” for “As”, “Table 2” for “Table 1”

kappa receptor = target: T4, kappa receptor (Homo sapiens, UniProt P41145); test: [35S]GTPgammaS binding assay, kappa receptor; type: biochemical; details: CHO membranes
T4 construct: expressed in transfected cells; host or cells: CHO cell lines
Experimental: (§4) Membranes from the CHO cell lines, expressing either the mu, delta or kappa receptor, are incubated with 12 concentrations of each opioid for 60 minutes at 30° C. in a final volume of 0.5 ml of assay buffer (50 mM Tris-HCl, 3 mM MgCl2, 0.2 mM EGTA, 100 mM NaCl, pH 7.5) containing 3 μM GDP and 0.08 nM [^35S]GTPgammaS. Basal binding can be determined in the presence of GDP and the absence of opioids, and nonspecific binding can be determined by including 10 μM unlabeled […]. The incubation can be terminated by filtration under vacuum through glass fiber filters, followed by three washes with 3 ml ice-cold 50 mM Tris-HCl, pH 7.5. Samples can be allowed to equilibrate overnight and can be counted in 2 ml Ecoscint A scintillation fluid for 2 minutes in a liquid scintillation counter.
(§5) For [^35S]GTPgammaS binding assays, percent stimulation of [^35S]GTPgammaS binding is defined as [(opioid-stimulated binding-basal binding) basal binding]×100. Percent stimulation is plotted as a function of opioid concentration (log scale), and EC50 and Emax values are determined by linear regression analysis. All data is compared across conditions using ANOVA and non-paired two-tailed Student's tests.

mu receptor = target: T5, mu receptor (Homo sapiens, UniProt P35372); test: [35S]GTPgammaS binding assay, mu receptor; type: biochemical; details: CHO membranes
T5 construct: expressed in transfected cells; host or cells: CHO cell lines
Experimental: as §4, §5

[3] = read-out: Ki (nM) ± SE [3H]DAMGO (μ), Table 1, CHO membranes, 25° C., mean ± SEM of three experiments in triplicate
[4] = read-out: Ki (nM) ± SE [3H]Naltrindole (δ), Table 1, CHO membranes, 25° C., mean ± SEM of three experiments in triplicate
[5] = Table 1, CHO membranes, 25° C., mean ± SEM of three experiments in triplicate, read-out: Ki (nM) ± SE [3H]U69,593 (κ)
[6] = read-out: Ki (nM) ± SE [3H]Naltrindole (δ), Table 2, CHO membranes, 25° C., mean ± SEM of three experiments in triplicate
[7] = Table 1, CHO membranes, 25° C., mean ± SEM of three experiments in triplicate

T3 sequence (P41145 whole entry): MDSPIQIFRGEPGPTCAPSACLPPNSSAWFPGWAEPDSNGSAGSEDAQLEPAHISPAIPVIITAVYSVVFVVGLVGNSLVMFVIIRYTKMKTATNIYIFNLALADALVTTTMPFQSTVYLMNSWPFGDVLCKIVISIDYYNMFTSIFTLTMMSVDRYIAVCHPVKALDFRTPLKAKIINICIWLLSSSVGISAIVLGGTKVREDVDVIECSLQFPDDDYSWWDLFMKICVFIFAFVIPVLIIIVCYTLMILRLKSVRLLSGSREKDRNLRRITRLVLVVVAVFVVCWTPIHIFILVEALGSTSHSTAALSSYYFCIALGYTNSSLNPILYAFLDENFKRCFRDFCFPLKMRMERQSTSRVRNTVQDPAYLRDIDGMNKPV
T4 sequence (P41145 whole entry): as above
T2 sequence (P41143 whole entry): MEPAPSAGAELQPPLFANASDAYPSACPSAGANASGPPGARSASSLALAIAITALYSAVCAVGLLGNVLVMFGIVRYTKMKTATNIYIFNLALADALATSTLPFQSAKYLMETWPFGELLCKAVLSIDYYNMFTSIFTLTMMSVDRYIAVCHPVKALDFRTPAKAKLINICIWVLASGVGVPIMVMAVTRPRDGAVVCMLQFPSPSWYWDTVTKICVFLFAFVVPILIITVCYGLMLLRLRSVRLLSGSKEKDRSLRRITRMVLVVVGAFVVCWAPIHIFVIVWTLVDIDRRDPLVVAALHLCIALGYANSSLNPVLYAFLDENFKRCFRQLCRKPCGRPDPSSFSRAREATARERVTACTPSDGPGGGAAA
T1 sequence (P35372 whole entry): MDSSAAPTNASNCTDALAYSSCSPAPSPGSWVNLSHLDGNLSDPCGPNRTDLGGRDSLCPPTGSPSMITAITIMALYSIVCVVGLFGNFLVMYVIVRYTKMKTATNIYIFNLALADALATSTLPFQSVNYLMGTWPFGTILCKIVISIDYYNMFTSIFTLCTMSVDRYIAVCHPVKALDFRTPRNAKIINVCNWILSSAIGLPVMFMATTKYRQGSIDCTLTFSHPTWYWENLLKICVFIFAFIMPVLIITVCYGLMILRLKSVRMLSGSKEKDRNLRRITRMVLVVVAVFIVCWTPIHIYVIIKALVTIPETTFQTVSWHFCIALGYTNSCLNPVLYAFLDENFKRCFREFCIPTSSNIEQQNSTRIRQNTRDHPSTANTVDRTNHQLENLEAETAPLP
T5 sequence (P35372 whole entry): as above

Compound	Ki (human mu opioid receptor; [3]) [nM]	Ki [1, 4] [nM]	Ki [2, 5] [nM]	Selectivity δ:κ ([2]; Table 1)	Selectivity μ:κ ([2]; Table 1)	Ki [1, 6] [nM]	Selectivity δ:κ ([2]; Table 2)	Selectivity μ:κ ([2]; Table 2)	Ki (human mu opioid receptor) [nM]	Ki [2] [nM]	further results
Nc1nc2cc3c(cc2s1)C[C@@H]1[C@@H]2CCCC[C@]32CCN1CC1CC1 [Compound 71]	1.5 ± 0.21	29 ± 2	0.049 ± 0.0046	590	30						Efficacy (agonist, partial agonist, antagonist) at κ receptor (kappa receptor): κ and μ agonist; Relative potency κ versus μ (kappa receptor): more potent at κ than at μ; Efficacy (agonist, partial agonist, antagonist) at μ receptor (mu receptor): κ and μ agonist
O=C1c2ccc(O)cc2[C@@]23CCCC[C@H]2[C@@H]1N(CC1CCC1)CC3 [Compound 74, 3-Hydroxy-10-keto-N-cyclobutylmethylmorphinan]						260 ± 55	540	6.9			Ki (human mu opioid receptor; read-out: Ki (nM) ± SE [3H]DAMGO (μ), Table 2, CHO membranes, 25° C., mean ± SEM of three experiments in triplicate): 3.3 ± 0.26 nM; Ki ([2]; Table 2, CHO membranes, 25° C., mean ± SEM of three experiments in triplicate, read-out: Ki (nM) ± SE [3H]U69,593 (κ)): 0.48 ± 0.027 nM
CN1CC[C@]23CCCC[C@H]2[C@H]1Cc1c3ccc2nc(N)sc12 [Compound 70]			6.4 ± 0.53	30	0.17						Ki (human mu opioid receptor; [7]): 1.1 ± 0.13 nM; Ki [1, 7]: 190 ± 9.7 nM
CN1CC[C@]23CCCC[C@H]2[C@H]1Cc1cc2sc(N)nc2cc13 [Compound 69]	130 ± 5.8	1100 ± 30	29	38	4.5						
Nc1nc2cc3c(cc2s1)C[C@@H]1[C@@H]2CCCC[C@]32CCN1CC1CCC1 [Compound 72]	7.1 ± 0.47	230 ± 21	0.79 ± 0.02	290	9.0						Efficacy (agonist, partial agonist, antagonist) at κ receptor (kappa receptor): κ agonist; Efficacy (agonist, partial agonist, antagonist) at μ receptor (mu receptor): weak agonist and antagonist activity
O=C1c2ccc(O)cc2[C@@]23CCCC[C@H]2[C@@H]1N(CCCF)CC3 [Compound 75, 3-Hydroxy-10-keto-N-(3-fluoropropyl)morphinan]						690 ± 171			20 ± 4.8		
COCCN1CC[C@]23CCCC[C@H]2[C@H]1C(=O)c1ccc(O)cc13 [Compound 76, 3-Hydroxy-10-keto-N-(2-methoxyethyl)morphinan]							590	5.3	90 ± 10	17 ± 0.6	Ki [1]: > 10000 nM
O=C1c2ccc(O)cc2[C@@]23CCCC[C@H]2[C@@H]1N(CCc1ccccc1)CC3 [Compound 77, 3-Hydroxy-10-keto-N-(2-phenylethyl)morphinan]						9.7 ± 0.34	1.3	0.08	0.63 ± 0.07	7.7 ± 0.19	
C#CCN1CC[C@]23CCCC[C@H]2[C@H]1C(=O)c1ccc(O)cc13 [Compound 73, 3-Hydroxy-10-keto-N-propargylmorphinan]						2300 ± 190	38	3.2	190 ± 4.4	60 ± 1.7	
